Source: ChEMBL document CHEMBL1201862, “PubChem BioAssay data set” (2004)
Active and inactive are the calls of the source. Cut-off read from the data, not from the text of the source: actives have a measured IC50 and inactives only a lower limit.

Molecular target: Envelope glycoprotein gp160 (Human immunodeficiency virus 1, UniProt Q6QLK5)
Experiment: inhibitors of HIV fusion peptide binding, primary screen, biochemical, uHTS, fluorescence dequenching (AID 1986)

Envelope glycoprotein gp160, sequence (Q6QLK5 whole entry, the tested form may be a part): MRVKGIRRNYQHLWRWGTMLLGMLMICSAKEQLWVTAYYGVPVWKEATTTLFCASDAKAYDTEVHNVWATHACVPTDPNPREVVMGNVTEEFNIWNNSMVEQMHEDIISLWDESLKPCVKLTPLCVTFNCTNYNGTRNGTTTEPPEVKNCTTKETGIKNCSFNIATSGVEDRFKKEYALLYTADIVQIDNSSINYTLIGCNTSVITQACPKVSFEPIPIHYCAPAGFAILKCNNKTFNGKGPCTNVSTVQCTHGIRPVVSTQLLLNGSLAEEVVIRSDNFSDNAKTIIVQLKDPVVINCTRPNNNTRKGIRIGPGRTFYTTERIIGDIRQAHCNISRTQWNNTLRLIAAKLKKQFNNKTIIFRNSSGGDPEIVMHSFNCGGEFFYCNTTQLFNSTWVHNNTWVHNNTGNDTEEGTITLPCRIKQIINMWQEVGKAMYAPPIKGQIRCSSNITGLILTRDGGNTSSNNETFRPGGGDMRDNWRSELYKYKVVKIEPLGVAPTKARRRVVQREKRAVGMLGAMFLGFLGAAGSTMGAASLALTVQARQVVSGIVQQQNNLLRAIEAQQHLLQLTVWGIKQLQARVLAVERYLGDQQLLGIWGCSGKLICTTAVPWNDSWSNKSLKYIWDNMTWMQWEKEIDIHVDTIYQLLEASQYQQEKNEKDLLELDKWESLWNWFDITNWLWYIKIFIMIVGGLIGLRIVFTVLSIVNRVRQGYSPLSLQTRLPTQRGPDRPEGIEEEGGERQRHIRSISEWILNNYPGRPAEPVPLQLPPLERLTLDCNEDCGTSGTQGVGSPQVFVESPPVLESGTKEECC

Row | Structure (SMILES) | IC50
1 | COc1ccc(-c2nn(-c3ccccc3)cc2/C=C\C(=O)Nc2ccc(C(=O)O)cc2)cc1 | 18.3 µM (active)
2 | CC1=C(C(=O)Nc2ccccc2)C(c2ccc(Cl)cc2)n2c(s/c(=C/c3cccc(OCC(=O)O)c3)c2=O)=N1 (configuration not stated) | 16.8 µM (active)
